# Assay results taken from patent US8691855B2, “Compounds, isomer thereof, or pharmaceutically acceptable salts thereof as vanilloid receptor antagonist and pharmaceutical compositions containing the same” (Amorepacific Corporation, priority 2008, dated 2014).
# Molecular target: T1, vanilloid receptor (Rattus norvegicus, UniProt O35433)
# T1 construct: DRG nerve cells from the primary culture of 2 days were equilibrated; endogenous in cells; host or cells: primary culture of dorsal root ganglion neurons from neonatal SD rats
# T1 sequence (O35433 whole entry): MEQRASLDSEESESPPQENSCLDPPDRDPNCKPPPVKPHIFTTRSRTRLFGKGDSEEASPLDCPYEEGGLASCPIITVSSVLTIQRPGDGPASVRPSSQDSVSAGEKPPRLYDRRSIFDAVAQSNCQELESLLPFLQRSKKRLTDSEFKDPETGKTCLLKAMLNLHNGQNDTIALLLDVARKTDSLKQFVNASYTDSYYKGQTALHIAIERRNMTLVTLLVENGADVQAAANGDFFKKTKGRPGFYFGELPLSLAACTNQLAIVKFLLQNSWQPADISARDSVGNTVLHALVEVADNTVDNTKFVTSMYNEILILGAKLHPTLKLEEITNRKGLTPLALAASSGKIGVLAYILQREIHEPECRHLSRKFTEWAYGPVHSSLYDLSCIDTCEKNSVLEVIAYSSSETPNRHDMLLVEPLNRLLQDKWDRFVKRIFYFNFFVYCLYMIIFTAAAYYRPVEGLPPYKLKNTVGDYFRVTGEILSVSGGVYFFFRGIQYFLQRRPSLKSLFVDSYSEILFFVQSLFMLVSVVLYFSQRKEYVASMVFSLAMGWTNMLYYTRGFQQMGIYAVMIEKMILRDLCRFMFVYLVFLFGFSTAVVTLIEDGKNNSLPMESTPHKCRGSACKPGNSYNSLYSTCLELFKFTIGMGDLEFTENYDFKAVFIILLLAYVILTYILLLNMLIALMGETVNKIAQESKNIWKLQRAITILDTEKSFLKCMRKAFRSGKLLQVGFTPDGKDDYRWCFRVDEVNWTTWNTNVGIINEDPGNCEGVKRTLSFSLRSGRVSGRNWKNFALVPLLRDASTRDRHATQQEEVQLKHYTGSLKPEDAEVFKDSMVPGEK
# Test: 45Ca influx test (antagonist calcium uptake test) in rat DRG neurons stimulated with capsaicin
# Assay type: cell-based
# Conditions: DRG neuron; @10 μM; neonatal SD rat DRG neurons; capsaicin 0.5 μM; read-out: Antagonist Calcium Uptake Test, percent inhibition of capsaicin response
# Method: 1) Separation of spinal dorsal root ganglia (DRG) in newborn rats and primary culture thereof
# Neonatal (2-3 clay old or younger than 2-3 day old) SD rats were put in ice for 5 minutes to anesthetize and disinfected with 70% ethanol. DRG of all part of spinal cord were dissected (Wood et al., 1988, J. Neurosci. 8, pp 3208-3220) and collected in DME/F12 medium to which 1.2 g/l sodium bicarbonate and 50 mg/l gentamycin were added. The DRG were incubated sequentially at 37° C. for 30 mins in 200 U/ml collagenase and 2.5 mg/ml trypsin, separately. The ganglia were washed twice with DME/F12 medium supplemented with 10% horse serum, triturated through a fire-polished Pasteur pipette, filtered through Nitex 80 membrane to obtain single cell suspension and the suspension was washed once more. This was subjected to centrifugation, then resuspended in cell culture medium at certain level of cell density. As the cell culture medium, DME/F12 medium supplemented with 10% horse serum was diluted with identical medium conditioned by C6 glioma cells 2 clays on a confluent monolayer (1:1), and NGF (Nerve Growth Factor) was added to adjust 200 ng/ml as final concentration. After the cells were grown 2 days in medium where cytosine arabinoside (Ara-C, 100 μM) was added to kill dividing nonneuronal cells, medium was changed to one without Ara-C. The resuspended cells were plated at a density of 1500-2000 neurons/well onto Terasaki plates previously coated with 10 μg/ml poly-D-ornithine.
# 2) ^45Ca Influx Experiments
# DRG nerve cells from the primary culture of 2 days were equilibrated by washing 4 times with HEPES (10 mM, pH 7.4)-buffered Ca^2+, Mg^2+-free HBSS (H-HBSS). The solution in each well was removed from the individual well. Medium containing the test compound plus capsaicin (final concentration 0.5 μM) and ^45Ca (final concentration 10 μCi/ml) in H-HBSS was added to each well and incubated at room temperature for 10 nuns. Terasaki plates were washed five times with H-HBSS and dried at room temperature. To each well, 0.3% SDS (10 μl) was added to elute ^45Ca. After the addition of scintillation cocktail of into each well, the amount of ^45Ca influx into neuron was measured by counting radioactivity. Antagonistic activities of test compounds against vanilloid receptor were calculated as percent of the inhibition of maximal response of capsaicin at a concentration of 0.5 μM.
row,inhibition at 10 µM [%],SMILES
1,56,"CC(C)c1cccc(Oc2ccc(C(=O)N[C@H](C)c3cc(F)c(NS(C)(=O)=O)c(F)c3)s2)c1 [Example 21, 5-(3-Isopropyl-phenoxy)-thiophene-2-carboxylic acid [1-(3,5-difluoro-4-methanesulfonylamino-phenyl)-ethyl]-amide]"

# Same assay, conditions: neonatal SD rat DRG neurons; capsaicin 0.5 μM; 45Ca
row,SMILES,IC50 [nM]
1,"C[C@@H](NC(=O)c1coc(N2CCCC3CCCCC32)n1)c1cc(F)c(NS(C)(=O)=O)c(F)c1 (some centres unmarked) [Example 19, 2-(Octahydro-quinolin-1-yl)-oxazole-4-carboxylic acid [1-(3,5-difluoro-4-methanesulfonylamino-phenyl)-ethyl]-amide]",610
2,"C[C@@H](NC(=O)c1coc(Oc2ccc3ncccc3c2)n1)c1cc(F)c(NS(C)(=O)=O)c(F)c1 [Example 23, 2-(Quinolin-6-yloxy)-oxazole-4-carboxylic acid [1-(3,5-difluoro-4-methanesulfonylamino-phenyl)-ethyl]-amide]",11900
3,"C[C@@H](NC(=O)c1coc(Oc2cccc3cccnc23)n1)c1cc(F)c(NS(C)(=O)=O)c(F)c1 [Example 24, 2-(Quinolin-8-yloxy)-oxazole-4-carboxylic acid [1-(3,5-difluoro-4-methanesulfonylamino-phenyl)-ethyl]-amide]",> 10000
4,"C[C@@H](NC(=O)c1coc(Oc2cc(C(F)(F)F)ccn2)n1)c1cc(F)c(NS(C)(=O)=O)c(F)c1 [Example 25, 2-(4-Trifluoromethyl-pyridin-2-yloxy)-oxazole-4-carboxylic acid [1-(3,5-difluoro-4-methanesulfonylamino-phenyl)-ethyl]-amide]",> 10000
5,"C#Cc1cccc(Oc2nc(C(=O)N[C@H](C)c3cc(F)c(NS(C)(=O)=O)c(F)c3)co2)c1 [Example 27, 2-(3-Ethynyl-phenoxy)-oxazole-4-carboxylic acid [1-(3,5-difluoro-4-methanesulfonylamino-phenyl)-ethyl]-amide]",1600
6,"CCc1cccc(Oc2nc(C(=O)N[C@H](C)c3cc(F)c(NS(C)(=O)=O)c(F)c3)co2)c1 [Example 29, 2-(3-Ethyl-phenoxy)-oxazole-4-carboxylic acid [1-(3,5-difluoro-4-methanesulfonylamino-phenyl)-ethyl]-amide]",280
7,"CC(C)c1cccc(Oc2nc(C(=O)N[C@H](C)c3cc(F)c(NS(C)(=O)=O)c(F)c3)cs2)c1 [Example 31, 2-(3-Isopropyl-phenoxy)-thiazole-4-carboxylic acid [1-(3,5-difluoro-4-methanesulfonylamino-phenyl)-ethyl]-amide]",2000
8,"CCCc1cc(C(F)(F)F)ccc1Oc1nc(C(=O)N[C@H](C)c2cc(F)c(NS(C)(=O)=O)c(F)c2)co1 [Example 33, 2-(2-Propyl-4-trifluoromethyl-phenoxy)-oxazole-4-carboxylic acid [1-(3,5-difluoro-4-methanesulfonylamino-phenyl)-ethyl]-amide]",4900
9,"C[C@@H](NC(=O)c1coc(Oc2cc(C(F)(F)F)cc(C(F)(F)F)c2)n1)c1cc(F)c(NS(C)(=O)=O)c(F)c1 [Example 36, 2-(3,5-Bis-trifluoromethyl-phenoxy)-oxazole-4-carboxylic acid [1-(3,5-difluoro-4-methanesulfonylamino-phenyl)-ethyl]-amide]",1300
10,"CC(C)c1cc(Oc2nc(C(=O)N[C@H](C)c3cc(F)c(NS(C)(=O)=O)c(F)c3)co2)cc(C(F)(F)F)c1 [Example 40, 2-(3-Isopropyl-5-trifluoromethyl-phenoxy)-oxazole-4-carboxylic acid [1-(3,5-difluoro-4-methanesulfonylamino-phenyl)-ethyl]-amide]",1100
11,"CCCc1ccc(C(F)(F)F)cc1Oc1nc(C(=O)N[C@H](C)c2cc(F)c(NS(C)(=O)=O)c(F)c2)co1 [Example 41, 2-(2-Propyl-5-trifluoromethyl-phenoxy)-oxazole-4-carboxylic acid [1-(3,5-difluoro-4-methanesulfonylamino-phenyl)-ethyl]-amide]",190
12,"C=C(C)c1cc(Oc2nc(C(=O)N[C@H](C)c3cc(F)c(NS(C)(=O)=O)c(F)c3)co2)cc(C(F)(F)F)c1 [Example 43, 2-(3-Isopropenyl-5-trifluoromethyl-phenoxy)-oxazole-4-carboxylic acid [1-(3,5-difluoro-4-methanesulfonylamino-phenyl)-ethyl]-amide]",960
13,"C[C@@H](NC(=O)c1coc(Nc2cccc(C(F)(F)F)c2)n1)c1cc(F)c(NS(C)(=O)=O)c(F)c1 [Example 44, 2-(3-Trifluoromethyl-phenylamino)-oxazole-4-carboxylic acid [1-(3,5-difluoro-4-methanesulfonylamino-phenyl)-ethyl]-amide]",5500
14,"CC(C)Oc1cccc(Oc2nc(C(=O)N[C@H](C)c3cc(F)c(NS(C)(=O)=O)c(F)c3)co2)c1 [Example 48, 2-(3-Isopropoxy-phenoxy)-oxazole-4-carboxylic acid [1-(3,5-difluoro-4-methanesulfonylamino-phenyl)-ethyl]-amide]",1200

# Other lines, results leading:
row,IC50 [nM],SMILES
1,1900,"C[C@@H](NC(=O)c1coc(Oc2ccc3c(c2)CCC3)n1)c1cc(F)c(NS(C)(=O)=O)c(F)c1 [Example 22, 2-(Indan-5-yloxy)-oxazole-4-carboxylic acid [1-(3,5-difluoro-4-methanesulfonylamino-phenyl)-ethyl]-amide]"
2,> 10000,C[C@@H](NC(=O)c1coc(Oc2cccc(Cl)n2)n1)c1cc(F)c(NS(C)(=O)=O)c(F)c1 [Example 26]
3,820,"C=C1CCc2c(Oc3nc(C(=O)N[C@H](C)c4cc(F)c(NS(C)(=O)=O)c(F)c4)co3)cccc21 [Example 28, 2-(1-Methylene-indan-4-yloxy)-oxazole-4-carboxylic acid [1-(3,5-difluoro-4-methanesulfonylamino-phenyl)-ethyl]-amide]"
4,410,"C=C1CCCc2c(Oc3nc(C(=O)N[C@H](C)c4cc(F)c(NS(C)(=O)=O)c(F)c4)co3)cccc21 [Example 37, 2-(5-Methylene-5,6,7,8-tetrahydro-naphthalen-1-yloxy)-oxazole-4-carboxylic acid [1-(3,5-difluoro-4-methanesulfonylamino-phenyl)-ethyl]-amide]"
5,400,"CCC1CCc2c(Oc3nc(C(=O)N[C@H](C)c4cc(F)c(NS(C)(=O)=O)c(F)c4)co3)cccc21 (some centres unmarked) [Example 38, 2-(1-Ethyl-indan-4-yloxy)-oxazole-4-carboxylic acid [1-(3,5-difluoro-4-methanesulfonylamino-phenyl)-ethyl]-amide]"
6,290,"CC1CCCc2c(Oc3nc(C(=O)N[C@H](C)c4cc(F)c(NS(C)(=O)=O)c(F)c4)co3)cccc21 (some centres unmarked) [Example 39, 2-(5-Methyl-5,6,7,8-tetrahydro-naphthalen-1-yloxy)-oxazole-4-carboxylic acid [1-(3,5-difluoro-4-methanesulfonylamino-phenyl)-ethyl]-amide]"
7,770,"C[C@@H](NC(=O)c1coc(Oc2cccc(C(F)(F)F)c2Cl)n1)c1cc(F)c(NS(C)(=O)=O)c(F)c1 [Example 45, 2-(2-Chloro-3-trifluoromethyl-phenoxy)-oxazole-4-carboxylic acid [1-(3,5-difluoro-4-methanesulfonylamino-phenyl)-ethyl]-amide]"
8,620,"Cc1ccc(C(C)C)cc1Oc1nc(C(=O)N[C@H](C)c2cc(F)c(NS(C)(=O)=O)c(F)c2)co1 [Example 47, 2-(5-Isopropyl-2-methyl-phenoxy)-oxazole-4-carboxylic acid [1-(3,5-difluoro-4-methanesulfonylamino-phenyl)-ethyl]-amide]"
9,600,"C[C@@H](NC(=O)c1coc(Oc2cccc3c2OC2(CCCC2)O3)n1)c1cc(F)c(NS(C)(=O)=O)c(F)c1 [Example 49, 2-(2,3-Dihydroxy-phenoxy)-oxazole-4-carboxylic acid [1-(3,5-difluoro-4-methanesulfonylamino-phenyl)-ethyl]-amide, cyclopentanone ketal]"
10,1100,"Cc1ccc(C2CCCCC2)c(Oc2nc(C(=O)N[C@H](C)c3cc(F)c(NS(C)(=O)=O)c(F)c3)co2)c1 [Example 50, 2-(2-Cyclohexyl-5-methyl-phenoxy)-oxazole-4-carboxylic acid [1-(3,5-difluoro-4-methanesulfonylamino-phenyl)-ethyl]-amide]"
11,1100,"C[C@@H](NC(=O)c1coc(Oc2cccc(C3CCCC3)c2)n1)c1cc(F)c(NS(C)(=O)=O)c(F)c1 [Example 51, 2-(3-Cyclopentyl-phenoxy)-oxazole-4-carboxylic acid [1-(3,5-difluoro-4-methanesulfonylamino-phenyl)-ethyl]-amide]"
